Results: PubChem BioAssay AID1918933 (Molecular Pharmacology Branch, DTP, NCI, 2023)

Test system: 186277-243-T-J2-PDC complex spheroid viability
Assay: Anticancer human tumor 186277-243-T-J2-PDC patient-derived colon adenocarcinoma cell line growth inhibition
Settings: for IC50: curve of first compound; for viability, T/C: stronger effect = lower value
In short: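 Multicellular complex spheroids of tumor cells with human endothelial cells (HUVEC) and mesenchymal stem cells; the LSD1 inhibitor iadademstat was combined with standard-of-care or investigational agents. Top concentration at or near clinical Cmax, half-log dilutions; final DMSO ≤0.25%.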

[1] = second compound 0.1 µM, first compound 0.000316 µM
[2] = second compound 0.1 µM, first compound 0.001 µM
[3] = second compound 0.1 µM, first compound 0.00316 µM
[4] = second compound 0.1 µM, first compound 0.01 µM
[5] = second compound 0.1 µM, first compound 0.0316 µM
[6] = second compound 0.1 µM, first compound 0.1 µM
[7] = second compound 0.316 µM, first compound 0.000316 µM
[8] = second compound 0.316 µM, first compound 0.001 µM
[9] = second compound 0.316 µM, first compound 0.00316 µM
[10] = second compound 0.316 µM, first compound 0.01 µM
[11] = second compound 0.316 µM, first compound 0.0316 µM
[12] = second compound 0.316 µM, first compound 0.1 µM
[13] = second compound 1 µM, first compound 0.000316 µM
[14] = second compound 1 µM, first compound 0.001 µM
[15] = second compound 1 µM, first compound 0.00316 µM
[16] = second compound 1 µM, first compound 0.01 µM
[17] = second compound 1 µM, first compound 0.0316 µM
[18] = second compound 1 µM, first compound 0.1 µM
[19] = second compound 3.16 µM, first compound 0.000316 µM
[20] = second compound 3.16 µM, first compound 0.001 µM
[21] = second compound 3.16 µM, first compound 0.00316 µM
[22] = second compound 3.16 µM, first compound 0.01 µM
[23] = second compound 3.16 µM, first compound 0.0316 µM
[24] = second compound 3.16 µM, first compound 0.1 µM
[25] = second compound 10 µM, first compound 0.000316 µM
[26] = second compound 10 µM, first compound 0.001 µM
[27] = second compound 10 µM, first compound 0.00316 µM
[28] = second compound 10 µM, first compound 0.01 µM
[29] = second compound 10 µM, first compound 0.0316 µM
[30] = second compound 10 µM, first compound 0.1 µM
[31] = second compound 0.1 µM, first compound 0.00949 µM
[32] = second compound 0.1 µM, first compound 0.03 µM
[33] = second compound 0.1 µM, first compound 0.0949 µM
[34] = second compound 0.1 µM, first compound 0.3 µM
[35] = second compound 0.1 µM, first compound 0.949 µM
[36] = second compound 0.1 µM, first compound 3 µM
[37] = second compound 0.316 µM, first compound 0.00949 µM
[38] = second compound 0.316 µM, first compound 0.03 µM
[39] = second compound 0.316 µM, first compound 0.0949 µM
[40] = second compound 0.316 µM, first compound 0.3 µM
[41] = second compound 0.316 µM, first compound 0.949 µM
[42] = second compound 0.316 µM, first compound 3 µM
[43] = second compound 1 µM, first compound 0.00949 µM
[44] = second compound 1 µM, first compound 0.03 µM
[45] = second compound 1 µM, first compound 0.0949 µM
[46] = second compound 1 µM, first compound 0.3 µM
[47] = second compound 1 µM, first compound 0.949 µM
[48] = second compound 1 µM, first compound 3 µM
[49] = second compound 3.16 µM, first compound 0.00949 µM
[50] = second compound 3.16 µM, first compound 0.03 µM
[51] = second compound 3.16 µM, first compound 0.0949 µM
[52] = second compound 3.16 µM, first compound 0.3 µM
[53] = second compound 3.16 µM, first compound 0.949 µM
[54] = second compound 3.16 µM, first compound 3 µM
[55] = second compound 10 µM, first compound 0.00949 µM
[56] = second compound 10 µM, first compound 0.03 µM
[57] = second compound 10 µM, first compound 0.0949 µM
[58] = second compound 10 µM, first compound 0.3 µM
[59] = second compound 10 µM, first compound 0.949 µM
[60] = second compound 10 µM, first compound 3 µM
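Note: 7 day exposure to compounds.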
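Throughout, for viability, T/C: 100% = DMSO vehicle control viability.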

Work on `CC(C)CC(NC(=O)CNC(=O)c1cc(Cl)ccc1Cl)B1OC(=O)CC(CC(=O)O)(C(=O)O)O1` (stereo not given) + NC1CCC(NC2CC2c2ccccc2)CC1 yielded an IC50 (second compound 0.1 µM) of 20.5 nM, an IC50 (second compound 0.316 µM) of 20.3 nM and an IC50 (second compound 1 µM) of 18.6 nM. The IC50 (second compound 3.16 µM) was 19.6 nM, the IC50 (second compound 10 µM) was 19.5 nM and the viability, T/C [1] was 102%. It also gave a viability, T/C [2] of 119%, a viability, T/C [3] of 115% and a viability, T/C [4] of 98.8%. For the same molecule, the viability, T/C [5] was 20.6%, the viability, T/C [6] was 1.64% and the viability, T/C [7] was 118%. For the same molecule, the viability, T/C [8] was 114%, the viability, T/C [9] was 117% and the viability, T/C [10] was 96.6%. It also gave a viability, T/C [11] of 20.7%, a viability, T/C [12] of 1.44% and a viability, T/C [13] of 113%. It also gave a viability, T/C [14] of 114%, a viability, T/C [15] of 111% and a viability, T/C [16] of 87.3%. For the same molecule, the viability, T/C [17] was 18.3%, the viability, T/C [18] was 1.22% and the viability, T/C [19] was 112%. It also gave a viability, T/C [20] of 107%, a viability, T/C [21] of 110% and a viability, T/C [22] of 96.5%. It also gave a viability, T/C [23] of 17.1%, a viability, T/C [24] of 1.04% and a viability, T/C [25] of 105%. It also gave a viability, T/C [26] of 111%, a viability, T/C [27] of 111% and a viability, T/C [28] of 98.5%. The viability, T/C [29] was 15.1% and the viability, T/C [30] was 1.05%.
`COc1cc(Nc2ncc3c(n2)-c2ccc(Cl)cc2C(c2c(F)cccc2OC)=NC3)ccc1C(=O)O` + NC1CCC(NC2CC2c2ccccc2)CC1 was tested, and the IC50 (second compound 0.1 µM) was 13 nM, the IC50 (second compound 0.316 µM) was 11.2 nM and the IC50 (second compound 1 µM) was 10.4 nM. It also gave an IC50 (second compound 3.16 µM) of 10.6 nM, an IC50 (second compound 10 µM) of 13.7 nM and a viability, T/C [3] of 131%. It also gave a viability, T/C [4] of 59.2%, a viability, T/C [5] of 19.2% and a viability, T/C [6] of 0.36%. It also gave a viability, T/C (second compound 0.1 µM, first compound 0.316 µM) of 0.06%, a viability, T/C (second compound 0.1 µM, first compound 1 µM) of 0.02% and a viability, T/C [9] of 119%. For the same molecule, the viability, T/C [10] was 54.1%, the viability, T/C [11] was 11.7% and the viability, T/C [12] was 0.19%. The viability, T/C (second compound 0.316 µM, first compound 0.316 µM) was 0.05%, the viability, T/C (second compound 0.316 µM, first compound 1 µM) was 0.01% and the viability, T/C [15] was 109%. It also gave a viability, T/C [16] of 51.1%, a viability, T/C [17] of 11.3% and a viability, T/C [18] of 0.14%. It also gave a viability, T/C (second compound 1 µM, first compound 0.316 µM) of 0.02%, a viability, T/C (second compound 1 µM, first compound 1 µM) of 0.01% and a viability, T/C [21] of 120%. It also gave a viability, T/C [22] of 51.8%, a viability, T/C [23] of 13.2% and a viability, T/C [24] of 0.12%. It also gave a viability, T/C (second compound 3.16 µM, first compound 0.316 µM) of 0.04%, a viability, T/C (second compound 3.16 µM, first compound 1 µM) of 0.01% and a viability, T/C [27] of 128%. For the same molecule, the viability, T/C [28] was 58.6%, the viability, T/C [29] was 27.7% and the viability, T/C [30] was 0.81%. The viability, T/C (second compound 10 µM, first compound 0.316 µM) was 0.06% and the viability, T/C (second compound 10 µM, first compound 1 µM) was 0.02%.
With `Cn1ncnc1C1c2n[nH]c(=O)c3cc(F)cc(c23)NC1c1ccc(F)cc1` (stereo not given) + NC1CCC(NC2CC2c2ccccc2)CC1 the IC50 (second compound 0.1 µM) was > 100 nM, the IC50 (second compound 0.316 µM) was > 100 nM and the IC50 (second compound 1 µM) was > 100 nM. The IC50 (second compound 3.16 µM) was > 100 nM, the IC50 (second compound 10 µM) was > 100 nM and the viability, T/C [1] was 109%. The viability, T/C [2] was 105%, the viability, T/C [3] was 111% and the viability, T/C [4] was 107%. For the same molecule, the viability, T/C [5] was 109%, the viability, T/C [6] was 104% and the viability, T/C [7] was 113%. The viability, T/C [8] was 107%, the viability, T/C [9] was 109% and the viability, T/C [10] was 108%. The viability, T/C [11] was 103%, the viability, T/C [12] was 96.8% and the viability, T/C [13] was 111%. For the same molecule, the viability, T/C [14] was 107%, the viability, T/C [15] was 110% and the viability, T/C [16] was 107%. For the same molecule, the viability, T/C [17] was 99.6%, the viability, T/C [18] was 97.8% and the viability, T/C [19] was 109%. The viability, T/C [20] was 99%, the viability, T/C [21] was 109% and the viability, T/C [22] was 103%. It also gave a viability, T/C [23] of 99.3%, a viability, T/C [24] of 104% and a viability, T/C [25] of 107%. For the same molecule, the viability, T/C [26] was 113%, the viability, T/C [27] was 102% and the viability, T/C [28] was 104%. For the same molecule, the viability, T/C [29] was 96% and the viability, T/C [30] was 108%.
`NS(=O)(=O)OCC1CC(n2ccc3c(NC4CCc5ccccc54)ncnc32)CC1O` (stereo not given) + NC1CCC(NC2CC2c2ccccc2)CC1 showed an IC50 (second compound 0.1 µM) of 521 nM, an IC50 (second compound 0.316 µM) of 474 nM and an IC50 (second compound 1 µM) of 518 nM. It also gave an IC50 (second compound 3.16 µM) of 686 nM, an IC50 (second compound 10 µM) of 907 nM and a viability, T/C [31] of 113%. The viability, T/C [32] was 96.2%, the viability, T/C [33] was 85.8% and the viability, T/C [34] was 65.8%. It also gave a viability, T/C [35] of 33.2%, a viability, T/C [36] of 9.95% and a viability, T/C [37] of 126%. For the same molecule, the viability, T/C [38] was 112%, the viability, T/C [39] was 97.3% and the viability, T/C [40] was 63%. For the same molecule, the viability, T/C [41] was 29.6%, the viability, T/C [42] was 12.1% and the viability, T/C [43] was 121%. For the same molecule, the viability, T/C [44] was 103%, the viability, T/C [45] was 103% and the viability, T/C [46] was 58.1%. It also gave a viability, T/C [47] of 38.1%, a viability, T/C [48] of 15.6% and a viability, T/C [49] of 113%. It also gave a viability, T/C [50] of 113%, a viability, T/C [51] of 97.3% and a viability, T/C [52] of 71.2%. It also gave a viability, T/C [53] of 42.5%, a viability, T/C [54] of 14% and a viability, T/C [55] of 112%. The viability, T/C [56] was 102%, the viability, T/C [57] was 92.8% and the viability, T/C [58] was 73%. For the same molecule, the viability, T/C [59] was 49.8% and the viability, T/C [60] was 15.1%.
`O=C(C=Cc1cccc(S(=O)(=O)Nc2ccccc2)c1)NO` + NC1CCC(NC2CC2c2ccccc2)CC1 showed an IC50 (second compound 0.1 µM) of 289 nM, an IC50 (second compound 0.316 µM) of 290 nM and an IC50 (second compound 1 µM) of 294 nM. It also gave an IC50 (second compound 3.16 µM) of 305 nM, an IC50 (second compound 10 µM) of 285 nM and a viability, T/C [31] of 109%. It also gave a viability, T/C [32] of 114%, a viability, T/C [33] of 121% and a viability, T/C [34] of 47.7%. The viability, T/C [35] was 20.5%, the viability, T/C [36] was 5.16% and the viability, T/C [37] was 116%. For the same molecule, the viability, T/C [38] was 110%, the viability, T/C [39] was 109% and the viability, T/C [40] was 47%. It also gave a viability, T/C [41] of 15.7%, a viability, T/C [42] of 2.43% and a viability, T/C [43] of 113%. For the same molecule, the viability, T/C [44] was 105%, the viability, T/C [45] was 104% and the viability, T/C [46] was 47.1%. It also gave a viability, T/C [47] of 16.6%, a viability, T/C [48] of 2.3% and a viability, T/C [49] of 99.7%. For the same molecule, the viability, T/C [50] was 92%, the viability, T/C [51] was 113% and the viability, T/C [52] was 50.6%. For the same molecule, the viability, T/C [53] was 16%, the viability, T/C [54] was 1.48% and the viability, T/C [55] was 104%. The viability, T/C [56] was 102%, the viability, T/C [57] was 113% and the viability, T/C [58] was 47.3%. It also gave a viability, T/C [59] of 15% and a viability, T/C [60] of 1.31%.
